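Exposure lasted 48 hours, with cells grown in 96-well plates and compounds tested at five concentrations. The concentration for 50% growth inhibition is given as GI50.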 The source made the active and inactive calls. Cut-off read from the data, not from the text of the source: active = GI50 up to about 1.1 µM and inactive = higher.
What was measured:
Assay in all cases: DTP human tumour cell line panel, 48 h
[1] = tested on: A549
[2] = tested on: CCRF-CEM
[3] = tested on: DU-145
[4] = tested on: HCT-15
[5] = tested on: HL-60
[6] = tested on: Hs-578T
[7] = tested on: MDA-MB-231
[8] = tested on: MDA-MB-435
[9] = tested on: MOLT-4
[10] = tested on: NCI-H226
[11] = tested on: NCI/ADR-RES
[12] = tested on: OVCAR-3
[13] = tested on: SF-268
[14] = tested on: SF-295
[15] = tested on: SK-MEL-28
[16] = tested on: SNB-75
[17] = tested on: SR
[18] = tested on: U-251
[19] = tested on: UACC-62
[20] = tested on: A498

SMILES | GI50 [1] | GI50 [2] | GI50 [3] | GI50 [4] | GI50 [5] | GI50 [6] | GI50 [7] | GI50 [8] | GI50 [9] | GI50 [10] | GI50 [11] | GI50 [12] | GI50 [13] | GI50 [14] | GI50 [15] | GI50 [16] | GI50 [17] | GI50 [18] | GI50 [19] | GI50 [20]
O=c1oc2ccccc2cc1-c1cn2c(n1)sc1ccccc12 | > 100 µM (inactive) | > 100 µM (inactive) | > 100 µM (inactive) | > 100 µM | > 100 µM (inactive) | > 100 µM (inactive) | > 100 µM (inactive) | 29.3 µM (inactive) | > 100 µM (inactive) | > 100 µM (inactive) | > 100 µM (inactive) | > 100 µM (inactive) | 52.6 µM (inactive) | > 100 µM (inactive) | > 100 µM (inactive) | > 100 µM (inactive) | > 100 µM (inactive) | 83 µM (inactive) | > 100 µM (inactive) | 
Cc1cc2nc(C#N)c(N3CCN(c4ccc([N+](=O)[O-])cc4)CC3)nc2cc1C | > 100 µM (inactive) | > 100 µM (inactive) | > 100 µM (inactive) | > 100 µM |  | 29.1 µM (inactive) | > 100 µM (inactive) | > 100 µM (inactive) |  | > 100 µM (inactive) | > 79.1 µM (inactive) | > 100 µM (inactive) | > 57.7 µM (inactive) | > 50.5 µM (inactive) | > 100 µM (inactive) | 63.5 µM (inactive) | > 100 µM (inactive) | > 74.6 µM (inactive) | > 79.1 µM (inactive) | > 75.2 µM (inactive)
O=C1N=C(c2ccccc2)O/C1=C\c1ccccc1 | > 100 µM (inactive) |  | > 100 µM (inactive) | > 100 µM | > 100 µM (inactive) | > 100 µM (inactive) | > 100 µM (inactive) | > 100 µM (inactive) | > 100 µM (inactive) | > 100 µM (inactive) | > 100 µM (inactive) | > 100 µM (inactive) | > 100 µM (inactive) | > 100 µM (inactive) | > 100 µM (inactive) | > 100 µM (inactive) | > 100 µM (inactive) | > 100 µM (inactive) | > 100 µM (inactive) | > 100 µM (inactive)
NC(=O)CC(Nc1ncc2c(n1)-c1ccccc1OC2)C(=O)O (stereo unspecified) | > 100 µM (inactive) | > 100 µM (inactive) | > 100 µM (inactive) | 85.7 µM | 14.9 µM (inactive) | > 100 µM (inactive) | > 100 µM (inactive) | > 100 µM (inactive) | > 100 µM (inactive) | 71.1 µM (inactive) | > 100 µM (inactive) | > 100 µM (inactive) | > 100 µM (inactive) | > 100 µM (inactive) | > 100 µM (inactive) | 67.9 µM (inactive) | > 100 µM (inactive) | > 100 µM (inactive) | > 100 µM (inactive) | 
Cc1ccc(C)n1-n1c(Cc2ccccc2)n[nH]c1=O | > 100 µM (inactive) | > 100 µM (inactive) | > 100 µM (inactive) | > 100 µM |  | > 100 µM (inactive) | > 100 µM (inactive) | > 100 µM (inactive) | > 100 µM (inactive) | > 100 µM (inactive) | > 100 µM (inactive) | > 100 µM (inactive) | > 100 µM (inactive) | > 100 µM (inactive) | > 100 µM (inactive) | 22.2 µM (inactive) | > 100 µM (inactive) | > 100 µM (inactive) | > 100 µM (inactive) | > 100 µM (inactive)
O=C1C=C/C(=N/c2cccc3c(/N=C4/C=CC(=O)O4)cccc23)O1 | > 100 µM (inactive) |  | > 100 µM (inactive) | 37.3 µM |  | > 100 µM (inactive) | 69.5 µM (inactive) | 44.5 µM (inactive) | 3.72 µM (inactive) | > 100 µM (inactive) | 95.7 µM (inactive) | 51.6 µM (inactive) | 52.6 µM (inactive) | > 100 µM (inactive) | 28.3 µM (inactive) | > 100 µM (inactive) | 19.8 µM (inactive) | > 100 µM (inactive) | 34.4 µM (inactive) | > 100 µM (inactive)
NC(=O)c1cc2ccccc2c(/N=N/c2ccccc2)c1O | > 100 µM (inactive) | > 100 µM (inactive) | > 100 µM (inactive) | > 100 µM |  | 93.3 µM (inactive) | 35.6 µM (inactive) | > 100 µM (inactive) | 76.7 µM (inactive) | > 100 µM (inactive) | 76.2 µM (inactive) | 88.1 µM (inactive) | 52.7 µM (inactive) | > 100 µM (inactive) | > 100 µM (inactive) | > 100 µM (inactive) | > 100 µM (inactive) | 9.59 µM (inactive) | > 100 µM (inactive) | > 100 µM (inactive)
COc1ccc(/[N+]([O-])=C/c2ccc(OC(=S)S)c(OC)c2)cc1 | 40.6 µM (inactive) |  | 41.6 µM (inactive) | 22.2 µM | 17.3 µM (inactive) | 34.4 µM (inactive) | > 100 µM (inactive) | 9.46 µM (inactive) | 33 µM (inactive) | 65.6 µM (inactive) | 22.7 µM (inactive) | 43.9 µM (inactive) | 42.5 µM (inactive) | 28.6 µM (inactive) | 52.2 µM (inactive) | 16.3 µM (inactive) | 15.6 µM (inactive) | 36.2 µM (inactive) | 99.3 µM (inactive) | > 100 µM (inactive)
CC1CC[C@]2(C(=O)O)CCC3(C)C(=C2[C@H]1C)C=CC1[C@@]2(C)CC[C@H](O)C(C)(C)C2CC[C@]13C (stereo partly specified) | 11.8 µM (inactive) | 29.7 µM (inactive) | 16.6 µM (inactive) | 27.4 µM | 18.6 µM (inactive) | 26 µM (inactive) | 21.3 µM (inactive) | 63.1 µM (inactive) | 23.7 µM (inactive) | 66.1 µM (inactive) | 36.6 µM (inactive) | 17.5 µM (inactive) | 27.7 µM (inactive) | 19.9 µM (inactive) | 28.3 µM (inactive) | 24.5 µM (inactive) | 12.4 µM (inactive) | 29 µM (inactive) | 42.2 µM (inactive) | 
c1ccc2c(c1)CCN2CCN1CCc2ccccc21 | > 10 µM (inactive) | > 10 µM (inactive) | > 10 µM (inactive) | > 10 µM | > 10 µM (inactive) | > 10 µM (inactive) | > 10 µM (inactive) | > 10 µM (inactive) | > 10 µM (inactive) | > 10 µM (inactive) | > 10 µM (inactive) | > 10 µM (inactive) | > 10 µM (inactive) | > 10 µM (inactive) | > 10 µM (inactive) | > 10 µM (inactive) | > 10 µM (inactive) | > 10 µM (inactive) | > 10 µM (inactive) | 
CN(C)C(=O)Oc1ccc[n+](C)c1 [PYRIDOSTIGMINE BROMIDE] |  |  | > 100 µM (inactive) | > 100 µM | > 100 µM (inactive) | > 100 µM (inactive) | > 100 µM (inactive) | > 100 µM (inactive) | > 100 µM (inactive) | > 100 µM (inactive) | > 100 µM (inactive) | > 100 µM (inactive) | > 100 µM (inactive) | > 100 µM (inactive) | > 100 µM (inactive) | > 100 µM (inactive) | 8.28 µM (inactive) | > 100 µM (inactive) | > 100 µM (inactive) | > 100 µM (inactive)

Source: ChEMBL document CHEMBL1201862, “PubChem BioAssay data set” (2004)
